Results from patent publication US8470010B2, “Systems and methods for treating superficial venous malformations like spider veins” (Green Medical, Inc., priority 2006, dated 2013).

What was measured:
cancer (solid tumors) = conditions: with array of light emitting diodes; preclinical and human clinical trials in United States, Europe and Japan; cited from earlier work
[1] = tested on: superficial venous anatomy of the ears; test: Photodynamic treatment of superficial venous anatomy of rabbit ears (IV LS11, then 664 nm LED light); format: in vivo, New Zealand White Rabbits
Experimental: The superficial venous anatomy of the ears of New Zealand White Rabbits were treated by injecting light-reactive agent LS11 (Talaporfin Sodium) in doses selected to approximate a human dose, and thereafter exposing the superficial venous anatomy to light at a wavelength of 664 nm in dose periods ranging from 8 to 12 minutes.
A total of twelve rabbits were treated. Each rabbit (weighing approximately six pounds) was intravaneously sedated for approximately 25 minutes using Ketamine and secured to a treatment table before being treated. The ears were shaved clean of hair and skin prepped with alcohol.
LS11 (Talaporfin Sodium, from Light Sciences Oncology, Inc.) was selected as the light reactive agent 14. […] Different doses of LS11 (at a concentration of 0.125 mg per cc) were administered to different rabbits, at 0.25 mg/kg; 0.50 mg/kg; 1.0 mg/kg; and 1.5 mg/kg, respectively. The doses were selected to approximate a human dose of 3 mg/ml to 10 mg/ml (a dose of 0.2 to 0.5 mg/kg).
The doses were administered to each rabbit's ear intravenously in a slow bolus method over a period of 5 minutes. After a pre-selected delay of ten minutes following the injection, a light-applying carrier 60 of the type shown in FIG. 18A (with a linear array of three LED's) was laid on the head of the rabbit over the treated ear, which was held tight against the carrier (see FIG. 20). […]

C=Cc1c(C)c2cc3nc(c(CC(=O)N[C@@H](CC(=O)O)C(=O)O)c4[nH]c(cc5nc(cc1[nH]2)C(C)=C5CC)c(C)c4C(=O)O)[C@@H](CCC(=O)O)[C@@H]3C [LS11, mono-L-aspartyl chlorine e6]
Efficacy in treating cancer (solid tumors) (cancer (solid tumors)): has shown efficacy in treating cancer (solid tumors)
Visible alterations in the superficial venous anatomy (shrinkage of veins) in treated ear ([1]; IV 0.25, 0.50, 1.0 or 1.5 mg/kg, 664 nm light for 8 to 12 minutes, other ear as control): Visible alterations in the superficial venous anatomy due to shrinkage of veins in the treated regions were observed
Alteration of superficial venous anatomy, treated ear vs control ear (FIG. 21) ([1]; LS11 dose 1.5 mg/kg IV, light dose 8 min of 664 nm light): visibly alter the superficial venous anatomy, due to shrinkage of veins in the targeted region
